Legend:
[1] = biological target: T1, KDR (Homo sapiens, UniProt P35968); experiment: Mass spectral analysis of tryptic digest of KDR after incubation with compound; type: binding; details: KDR 40 pmols, compound 395 pmols, 3 hrs, MALDI
Experimental: KDR kinase (40 pmols) was incubated with II-2 (395 pmols) for 3 hrs at 10× access prior to tryptic digestion. Iodoacetamide was used as the alkylating agent after compound incubation. For tryptic digests a 5 ul aliquot (6.7 pmols) was diluted with 10 ul of 0.1% TFA prior to micro C18 Zip Tipping directly onto the MALDI target using alpha cyano-4-hydroxy cinnamic acid as the matrix (5 mg/ml in 0.1% TFA:Acetonitrile 50:50).
For tryptic digests the instrument was set in Reflectron mode with a pulsed extraction setting of 1800. Calibration was done using the Laser Biolabs Pep Mix standard (1046.54, 1296.69, 1672.92, 2093.09, 2465.20). For CID/PSD analysis the peptide was selected using cursors to set ion gate timing and fragmentation occurred at a laser power about 20% higher and He was used as the collision gas for CID. Calibration for fragments was done using the P14R fragmentation calibration for the Curved field Reflectron.

[2] = biological target: T2, FLT3 (Homo sapiens, UniProt P36888); experiment: FLT-3 Omnia continuous-read kinase assay; type: biochemical; details: 30 min pre-incubation, [ATP]=500 μM; read-out: IC50_APP FLT3
T2 construct: purchased PV3182
T2 sequence (P36888 27-993): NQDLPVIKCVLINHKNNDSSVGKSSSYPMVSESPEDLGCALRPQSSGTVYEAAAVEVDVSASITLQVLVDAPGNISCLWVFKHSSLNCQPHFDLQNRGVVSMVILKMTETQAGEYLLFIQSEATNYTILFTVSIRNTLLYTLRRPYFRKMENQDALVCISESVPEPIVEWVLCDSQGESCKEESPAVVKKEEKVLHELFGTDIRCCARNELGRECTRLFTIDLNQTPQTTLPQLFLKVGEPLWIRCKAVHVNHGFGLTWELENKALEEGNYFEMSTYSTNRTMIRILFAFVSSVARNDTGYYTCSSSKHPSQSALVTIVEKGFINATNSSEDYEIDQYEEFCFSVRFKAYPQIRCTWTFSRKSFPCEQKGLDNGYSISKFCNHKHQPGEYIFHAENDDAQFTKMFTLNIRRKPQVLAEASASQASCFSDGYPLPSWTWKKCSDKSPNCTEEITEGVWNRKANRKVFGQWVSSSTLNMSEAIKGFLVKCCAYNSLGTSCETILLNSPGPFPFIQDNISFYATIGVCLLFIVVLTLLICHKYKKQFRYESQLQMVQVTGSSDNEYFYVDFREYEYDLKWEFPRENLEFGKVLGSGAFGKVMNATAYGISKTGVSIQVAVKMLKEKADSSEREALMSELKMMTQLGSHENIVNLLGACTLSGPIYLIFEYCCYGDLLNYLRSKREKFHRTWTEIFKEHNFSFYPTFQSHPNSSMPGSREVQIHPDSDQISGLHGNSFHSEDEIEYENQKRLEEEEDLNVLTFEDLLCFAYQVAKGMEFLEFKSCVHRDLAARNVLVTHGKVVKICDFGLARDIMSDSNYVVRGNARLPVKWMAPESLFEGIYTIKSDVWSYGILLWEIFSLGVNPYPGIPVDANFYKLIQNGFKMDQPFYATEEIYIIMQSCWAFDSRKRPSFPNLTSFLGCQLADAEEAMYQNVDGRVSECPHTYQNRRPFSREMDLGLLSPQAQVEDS
Experimental: (§1) A. KDR and FLT-3 Omnia Assay for Potency Assessment:
(§2) The protocol below describes a continuous-read kinase assay to measure inherent potency of Avila Therapeutics' compounds against active KDR and FLT-3 enzymes. The assay was performed substantially as described by the vendor (Invitrogen, Carlsbad, Calif.; http://www.invitrogen.com/content.cfm?pageid=11338.)
(§3) Briefly, 10× stocks of KDR from Invitrogen or BPS Bioscience (PV3660 or 40301) and FLT-3 (PV3182) enzymes, 1.13×ATP (AS001A) and Y9-Sox or Y12-Sox peptide substrates (KCZ1001) were prepared in 1× kinase reaction buffer consisting of 20 mM Tris, pH 7.5, 5 mM MgCl2, 1 mM EGTA, 5 mM β-glycerophosphate, 5% glycerol (10× stock, KB002A) and 0.2 mM DTT (DS001A). 5 μL of enzyme were pre-incubated in a Corning (#3574) 384-well, white, non-binding surface microtiter plate (Corning, N.Y.) for 30 min at 27° C. with a 0.5 μL volume of 50% DMSO and serially diluted compounds prepared in 50% DMSO. Kinase reactions were started with the addition of 45 μL of the ATP/Y9 or Y5-Sox peptide substrate mix and monitored every 30-90 seconds for 60 minutes at λex360/λem485 in a Synergy^4 plate reader from BioTek (Winooski, Vt.). At the conclusion of each assay, progress curves from each well were examined for linear reaction kinetics and fit statistics (R^2, 95% confidence interval, absolute sum of squares). Initial velocity (0 minutes to 20+ minutes) from each reaction was determined from the slope of a plot of relative fluorescence units vs time (minutes) and then plotted against inhibitor concentration to estimate IC50 from Log [Inhibitor] vs Response, Variable Slope model in GraphPad Prism from GraphPad Software (San Diego, Calif.).
[FLT-3]=15 nM, [ATP]=500 μM and [Y5-Sox peptide]=10 μM (ATP KMapp=470 μM)
(§4) The reported IC50_APP and IC50 values are in units of nM.

[3] = biological target: T1, KDR; experiment: KDR Omnia continuous-read kinase assay; type: biochemical; set-up: purchased Invitrogen or BPS Bioscience PV3660 or 40301; details: 30 min pre-incubation; read-out: IC50_APP KDR
Experimental: as §1, §2
as §3, with “Calif.). […]” for “Calif.).”
as §4

T1 sequence (P35968 20-1356): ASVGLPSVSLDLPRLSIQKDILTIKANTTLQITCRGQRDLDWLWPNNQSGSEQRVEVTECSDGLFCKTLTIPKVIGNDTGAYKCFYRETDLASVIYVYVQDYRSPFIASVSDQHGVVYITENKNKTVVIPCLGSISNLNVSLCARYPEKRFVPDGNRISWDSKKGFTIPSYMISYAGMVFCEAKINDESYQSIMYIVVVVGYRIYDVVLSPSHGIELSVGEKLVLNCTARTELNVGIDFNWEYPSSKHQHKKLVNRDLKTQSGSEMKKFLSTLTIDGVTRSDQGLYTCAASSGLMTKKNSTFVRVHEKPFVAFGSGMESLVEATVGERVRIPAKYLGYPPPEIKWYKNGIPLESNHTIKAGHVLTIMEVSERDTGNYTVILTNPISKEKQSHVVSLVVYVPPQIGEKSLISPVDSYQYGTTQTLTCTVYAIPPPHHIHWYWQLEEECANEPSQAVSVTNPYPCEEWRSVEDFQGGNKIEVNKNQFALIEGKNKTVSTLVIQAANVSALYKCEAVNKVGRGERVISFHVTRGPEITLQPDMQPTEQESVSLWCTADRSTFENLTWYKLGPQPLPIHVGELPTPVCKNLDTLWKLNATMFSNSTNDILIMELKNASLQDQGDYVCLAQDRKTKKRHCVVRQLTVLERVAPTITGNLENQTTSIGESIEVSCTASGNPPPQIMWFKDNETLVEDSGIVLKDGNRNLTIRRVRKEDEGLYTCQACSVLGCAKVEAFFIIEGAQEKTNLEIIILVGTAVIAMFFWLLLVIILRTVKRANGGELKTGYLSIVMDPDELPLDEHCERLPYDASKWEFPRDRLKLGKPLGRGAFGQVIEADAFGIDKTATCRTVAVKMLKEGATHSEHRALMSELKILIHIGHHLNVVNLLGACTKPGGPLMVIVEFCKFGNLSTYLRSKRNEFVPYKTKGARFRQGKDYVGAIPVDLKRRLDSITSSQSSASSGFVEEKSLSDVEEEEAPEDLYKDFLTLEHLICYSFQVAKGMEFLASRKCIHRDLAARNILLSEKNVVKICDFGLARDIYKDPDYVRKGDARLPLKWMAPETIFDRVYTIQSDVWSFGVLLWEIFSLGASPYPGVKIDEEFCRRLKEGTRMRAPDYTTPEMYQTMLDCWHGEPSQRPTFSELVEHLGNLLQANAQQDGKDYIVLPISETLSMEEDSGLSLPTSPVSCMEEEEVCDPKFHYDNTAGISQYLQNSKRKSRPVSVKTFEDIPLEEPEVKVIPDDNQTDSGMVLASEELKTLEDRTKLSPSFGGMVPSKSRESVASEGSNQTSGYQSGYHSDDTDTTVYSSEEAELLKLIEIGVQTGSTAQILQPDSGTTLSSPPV

C=CC(=O)N1CCC(Sc2nc(Nc3ncc(C#N)s3)cc(N3CCN(C)CC3)n2)CC1 [II-2, 2-(2-(1-Acryloylpiperidin-4-ylthio)-6-(4-methylpiperazin-1-yl)pyrimidin-4-ylamino)thiazole-5-carbonitrile]
MH+ of compound-modified tryptic peptide (ICDFGLAR) of KDR [1]: 1364.63 | IC50 [2]: 0.508 nM | IC50 [3]: 51.4 nM
